pIC50: −log10 of the molar value. Where two headings read alike, the source gives them in different places. Where a SMILES comes first, the peptide text is derived from it. [ ]: non-standard residue; d: D form. The star is where a group is joined. Dolaproine = CO[C@@H]([C@@H]1CCCN1)[C@@H](C)C(=O)O; Dil = CC[C@H](C)[C@H](NC)[C@@H](CC(=O)O)OC; X1 = C[C@@H](N*)[C@@H](O)c1ccccc1; NMeV = CN[C@H](C(=O)O)C(C)C Where only a bound is given, the exact number is not on record here.

Series [1] in a line: Adverse effects and weight loss of mice treated in the efficacy models. It counts as in vivo, BALB/c nu/nu mice. From the text:
Five-week-old female athymic BALB/c nu/nu mice were purchased from Charles River Company (Shanghai, China), and mice were randomly divided into 5-6 mice/group. Animal handling and procedures were approved and performed in accordance with the requirements of the Institutional Animal Care and Use Committee (IACUC) of Shanghai Institute of Materia Medica, Chinese Academy of Sciences. All models were inoculated subcutaneously on the side of mice. BXPC-3, HCC1806 and NCIH1688 cells were established by injecting and homogenizing 5 × 10^6 cells in Matrigel matrix. COLO205 cells were established by injecting and suspending 1 × 10^7 cells in Matrigel matrix. After the tumor volume reached about 200 mm^3, the tumor-bearing mice were randomly divided into treatment groups and a control group according to the tumor volume. Each drug was administered intraperitoneally. Mice were injected at doses of 3 or 10 mg/kg (10 mL/kg). Tumor volume was defined as length × ½ × width × width. The percentage of inhibition was calculated by the following formula: (1-average tumor volume of the treatment group/average tumor volume of the control group)×100%. Toxicity of the different treatment groups was assessed by monitoring weight loss.

The next series deals with SKBR3 cells. Briefly: Endocytosis and intracellular localization of ADC by confocal microscopy. It counts as cell-based. As to conditions: 5 µg/mL, 37° C., 45 or 90 min. The method, then: SKBR3 cells were incubated with 5 µg/mL of hRS7-VK-PTX or hRS7-VK-SN38 in a 24-well plate (1 × 10^4 cells/well) in a 5% CO2, 37° C. incubator for 45 or 90 min. Cells were washed once with PBS, fixed and permeabilized. After washing, cells were stained with 488 goat anti-human IgG (H&L) or 555 anti-rabbit IgG F(ab′)2 fragment. Nuclear DNA was stained with 4′,6-dimidyl-2-phenylindole (DAPI). Immunofluorescence was recorded with an Olympus BK71 confocal microscope.
SKBR3 cells were incubated with ADC molecules at 37° C. for 45 or 90 min. Unbound ADC was removed by washing cells in a culture medium, then the cells were fixed and permeabilized. The marker proteins LAMP-1, GM130 and clathrin were detected with their respective antibodies and a secondary antibody conjugated to Alex®555 (red). Anti-Trop-2 ADC was detected with DyLight®488-conjugated secondary antibody (green). DAPI was used to stain nuclear DNA (blue).

The test system of the next series is Capan-1. The experiment in a line: Cell viability assay (CCK-8). The series is classed as cell-based. As to conditions: CCK-8, 96 hours, Pancreas, read-out: IC50 (95% Cl). The method, then:
(§1) Cell viability was determined using Cell Counting Kit 8 (CCK-8). Cells were seeded into 96-well plates at 3000-10000 cells/well. After incubation overnight, drugs were added at different concentrations. Plates were incubated in a 5% CO2, 37° C. humidified chamber for 96 hours. CCK8 reagent was added thereto and the plates were placed back to the incubator until the absorbance at 450 nm of untreated control cells was greater than 1.0. Growth inhibition was measured as the percent growth relative to untreated cells. Dose response curve was generated from the mean values of two or three tests, and IC50 values were calculated using Prism GraphPad software.
(§2) The anti-tumor efficacy of different payloads on different tumor cell lines was detected by CCK-8, and the results are shown in FIG. 5.

The subject of a further series is SK-MES-1. Briefly: Cell viability assay (CCK-8). The series is classed as cell-based. As to conditions: CCK-8, 96 hours, Lung, read-out: IC50 (95% Cl). The protocol: as §1, §2
The next series has as its system SCLC-21H. The experiment in a line: Cell viability assay (CCK-8). The series is classed as cell-based. The settings on record: CCK-8, 96 hours, read-out: IC50 (95% Cl). The protocol: as §1, §2
For another series, the system named is MDA-MB-468. Briefly: Cell viability assay (CCK-8). It counts as cell-based. As to conditions: CCK-8, 96 hours, read-out: IC50 (95% Cl). The method, then: as §1, §2
A further series relates to HT29. Briefly: Cell viability assay (CCK-8). As to conditions: CCK-8, 96 hours, Colon, read-out: IC50 (95% Cl). It counts as cell-based. The protocol: as §1, §2
The test system of another series is COLO205. Briefly: Cell viability assay (CCK-8). The series is classed as cell-based. The settings on record: CCK-8, 96 hours, read-out: IC50 (95% Cl). The method, then:
as §1, §2

The subject of another series is MDA-MB-231. The experiment in a line: Cell viability assay (CCK-8). It counts as cell-based. As to conditions: CCK-8, 96 hours, Mamary, read-out: IC50 (95% Cl). The method, then:
as §1, §2

For a further series, the system named is CFPAC-1. Briefly: Cell viability assay (CCK-8). It counts as cell-based. As to conditions: CCK-8, 96 hours, read-out: IC50 (95% Cl). The protocol: as §1, §2
The test system of the next series is NCIH2452. Briefly: Cell viability assay (CCK-8). The series is classed as cell-based. As to conditions: ADCs; CCK-8, 96 hours; cell 'HOC2401' [sic], Lung; read-out: IC50 (95% Cl). The protocol: as §1, §2
Another series has as its system BXPC-3. The experiment in a line: Cell viability assay (CCK-8). It counts as cell-based. As to conditions: CCK-8, 96 hours, Pancreas, read-out: IC50 (95% Cl). The protocol:
as §1, §2

For another series, the system named is NCI-H1688. The experiment in a line: Cell viability assay (CCK-8). The settings on record: CCK-8, 96 hours, Lung, read-out: IC50 (95% Cl). The series is classed as cell-based. The method, then:
as §1, §2

In a further series the test system is HCC1806. Briefly: Cell viability assay (CCK-8). The series is classed as cell-based. As to conditions: CCK-8, 96 hours, Mamary, read-out: IC50 (95% Cl). The protocol:
as §1, §2

Another series deals with SKBR3. The experiment in a line: Cell viability assay (CCK-8). The series is classed as cell-based. As to conditions: CCK-8, 96 hours, read-out: IC50 (95% Cl). The method, then: as §1, §2
The subject of series [2] is tumor cell lines with different expression levels of Trop-2. The experiment in a line: Cell viability assay (CCK-8), comparison across the cell panel. The series is classed as cell-based. The settings on record: tumor cell lines with different expression levels of Trop-2. The method, then:
as §1, §2

Setting [3] is: free payloads, cell 'Cepes-3' [sic].
The mark [4] stands for this setting: free payloads, cell 'SK-M55-1' [sic].
The mark [5] stands for this setting: free payloads, cell 'ECLC 214' [sic], Small cell lung.
[6] abbreviates: free payloads, cell printed 'MOA-413-468', Mamary.
Where [7] appears, read: free payloads, cell 'H123' [sic].
Where [8] appears, read: free payloads, cell 'CCAO205' [sic], Colen.
Setting [9] is: free payloads, 'MCP-83-21' [sic].
Setting [10] is: free payloads, cell CFPAC-1, Pancreas.
[11] abbreviates: free payloads, cell 'BKFC-Y' [sic].
Where [12] appears, read: free payloads, cell 'NCl-H1828' [sic].
The mark [13] stands for this setting: free payloads, cell 'SK8RS' [sic], Mamary.

In the case of hRS7-VK-SN38, in series [1] (mouse, in vivo), the “adverse effects or weight loss in treated mice, relative to hRS7-VK-PTX (none)” value is “stark contrast”. The “internalization and intracellular localization” value in the series on SKBR3 cells is recorded as “did not undergo significant internalization”. For the same compound, the pIC50 (as a rule, −log10 of the IC50, conventionally taken in molar units) is 7.91 in the series with Capan-1 (ADCs, Cxoo-1 [sic]); 7.09 in the series with SK-MES-1 (ADCs, cell 'SK-WSS-7' [sic]); 7.79 with SCLC-21H (ADCs, SRM-C-21H); 8.86 in the series on MDA-MB-468 (ADCs, SRM-M9-409, Mammary); 8.25 with HT29 (ADCs, cell '3128' [sic]); 7.78 in the series on COLO205 (ADCs, cell printed 'COXC28', Colon). Moreover, the pIC50 with MDA-MB-231 (ADCs, cell 'SRM-K9-231' [sic]) was 8.52; in the series with CFPAC-1 (ADCs, cell CPAC-1 [sic], Pancreas) it was 8.50; in the series with NCIH2452, 7.99; in the series on BXPC-3 (ADCs, cell RMCA [sic]) it was 8.81; in the series on NCI-H1688 (ADCs, cell 'HCl-11685' [sic]), under 6.52; in the series on HCC1806 (ADCs, 'HOC1906' [sic]) it was 9.06. Moreover, the pIC50 in the series with SKBR3 (ADCs, 'SKERS' [sic], Mammary) was 8.84.
`CC(=O)O[C@H]1C(=O)[C@@]2(C)[C@H]([C@H](OC(=O)c3ccccc3)[C@]3(O)C[C@H](OC(=O)[C@H](O)[C@@H](NC(=O)c4ccccc4)c4ccccc4)C(C)=C1C3(C)C)[C@]1(OC(C)=O)CO[C@@H]1C[C@@H]2O` [PTX, Paclitaxel]: the “cytotoxicity of individual payload molecules” value in series [2] is “weaker than that of MMAE, but close to that of SN38”. Moreover, in series [1] (hRS7-VK-MMAE 3 mg/kg, hRS7-VK-SN38 3 or 10 mg/kg, PTX alone), the “adverse effects or weight loss in treated mice, relative to hRS7-VK-PTX (none)” value is on record as “stark contrast”. Moreover, the pIC50 is 8.13 in the series with Capan-1 (Homo sapiens, CAPAN-1, free payloads, cell 'Cepes-3' [sic]); 7.27 in the series with SK-MES-1 (Homo sapiens, SK-MES-1, free payloads, cell 'SK-M55-1' [sic]); about 7.49 in the series with SCLC-21H (Homo sapiens, SCLC-21H, free payloads, cell 'ECLC 214' [sic], Small cell lung); 8.14 in the series on MDA-MB-468 (Homo sapiens, MDA-MB-468, free payloads, cell printed 'MOA-413-468', Mamary); under 6.52 with HT29 (Homo sapiens, HT-29, free payloads, cell 'H123' [sic]); under 6.52 in the series on COLO205 (Homo sapiens, COLO 205, free payloads, cell 'CCAO205' [sic], Colen). Moreover, the pIC50 was under 6.52 with MDA-MB-231 (Homo sapiens, MDA-MB-231, free payloads, 'MCP-83-21' [sic]); under 6.52 in the series with CFPAC-1 (Homo sapiens, free payloads, cell CFPAC-1, Pancreas); 9.33 with BXPC-3 (Homo sapiens, BXPC-3, free payloads, cell 'BKFC-Y' [sic]); 7.43 in the series with NCI-H1688 (NCI-H1688, free payloads, cell 'NCl-H1828' [sic]); 8.61 with HCC1806 (Homo sapiens, HCC1806, free payloads, 'HCCHOI' [sic]); about 6.07 in the series with SKBR3 (Homo sapiens, SK-BR-3, free payloads, cell 'SK8RS' [sic], Mamary).
Consider `CC[C@H](C)[C@@H]([C@@H](CC(=O)N1CCC[C@H]1[C@H](OC)[C@@H](C)C(=O)N[C@H](C)[C@@H](O)c1ccccc1)OC)N(C)C(=O)[C@@H](NC(=O)[C@@H](NC)C(C)C)C(C)C` [MMAE] (H-[NMeV]V[Dil][Dolaproine]-X1), for which the pIC50 in the series on Capan-1 (setting [3]) is 9.44; in the series with SK-MES-1 (setting [4]) it was 9.65; with SCLC-21H (setting [5]), 10.88; with MDA-MB-468 (setting [6]), about 9.85; in the series with HT29 (setting [7]) it was about 8.52; in the series with COLO205 (setting [8]), 9.81. Moreover, the pIC50 in the series on MDA-MB-231 (setting [9]) was under 6.52; in the series on CFPAC-1 (setting [10]), under 6.52; in the series with BXPC-3 (setting [11]), 9.58; in the series with NCI-H1688 (setting [12]), 8.76; in the series with HCC1806 (free payloads, 'HCCHOI' [sic]) it was 10.75; with SKBR3 (setting [13]), 10.49.
In the case of `CCc1c2c(nc3ccc(O)cc13)-c1cc3c(c(=O)n1C2)COC(=O)[C@]3(O)CC` [SN38], the pIC50 in the series with Capan-1 (setting [3]) was 8.25; with SK-MES-1 (setting [4]), 8.26; with SCLC-21H (setting [5]), 8.67; in the series with MDA-MB-468 (setting [6]), 8.43; in the series on HT29 (setting [7]), under 6.52; in the series on COLO205 (setting [8]), 7.48. In addition, the pIC50 in the series with MDA-MB-231 (setting [9]) was 6.99; in the series with CFPAC-1 (setting [10]), about 9.55; with BXPC-3 (setting [11]), 7.68; with NCI-H1688 (setting [12]), about 8.31; in the series on HCC1806 (free payloads, 'HCCHOI' [sic]), 9.38; with SKBR3 (setting [13]), 8.67.

The values above are taken from US20230346969A1, “INTERMEDIATE FOR PREPARING ANTIBODY-DRUG CONJUGATE (ADC), PREPARATION METHOD THEREFOR, AND USE THEREOF” (priority 2020, published 2023).
